According to US10674732B2, “Anti-phytopathogenic compositions” (The State of Israel, Ministry Of Agriculture & Rural …, priority 2015, dated 2020):
In brackets after ≈: the same amount, converted by molar mass.

Tested on: Spiroplasma melliferum
Assay: Antagonistic test of the bacteria's supernatant (time to color change of phenol red medium)
Settings: 0.5 μg/ml

How did the “Inhibition index (ratio of days to color change to the time required in the positive control)” value turn out when CN(C)[C@@H]1C(O)=C(C(N)=O)C(=O)[C@@]2(O)C(O)=C3C(=O)c4c(O)cccc4[C@@](C)(O)[C@H]3[C@H](O)[C@@H]12 [oxytetracycline] was run?
Its value is 2.3.

Tested on: Spiroplasma melliferum
Assay: Microplate test of spiroplasma growth (OD=595 nm)
Type: cell-based
Settings: 1 mM, single compound
Method: For this reason, the potential inhibition of these substances was tested on Spiroplasma melliferum, a cultivable Mollicute. The experiment was conducted in a 96-wells microplate. 150 μl fresh broth containing phenol red and 4 μl spiroplasma cells (app. 10^5 cells) were added to each well. […] The microplate was incubated for two days at 28° C. and the color of the medium was scored by a plate-reader (Multiskan EX, Thermo scientific, Waltham, Mass. USA) at OD=595 nm.

How did the spiroplasma growth inhibition turn out when c1cc2cnccn2c1 [Pyrrolo[1,2-a]pyrazine] was run?
Its spiroplasma growth inhibition is “at 2 mM only”.

With O=Cc1ccnc2ccccc12 [Quinolinecarboxaldehyde, 4-Quinolinecarboxaldehyde] as the compound, how does the spiroplasma growth inhibition read?
The spiroplasma growth inhibition was “inhibited”.

Same assay, conditions: 2 mM, single compound

c1cc2cnccn2c1 [Pyrrolo[1,2-a]pyrazine] was tested. Which spiroplasma growth inhibition did it give?
Its spiroplasma growth inhibition is “inhibit”.

With O=Cc1ccnc2ccccc12 [Quinolinecarboxaldehyde, 4-Quinolinecarboxaldehyde] as the compound, how does the spiroplasma growth inhibition read?
The spiroplasma growth inhibition was “inhibited”.

Same assay, conditions: Spiroplasma melliferum, 48 h; two days at 28° C., FIG. 9; read-out: minimum inhibitory concentration (MIC)

For CN(C)[C@@H]1C(O)=C(C(N)=O)C(=O)[C@@]2(O)C(O)=C3C(=O)c4c(O)cccc4[C@@](C)(O)[C@H]3[C@H](O)[C@@H]12 [oxytetracycline], which MIC is on record?
The MIC was 350 µM (≈ 161 µg/mL).

Same assay, conditions: concentrations examined (2-0.02 mM), single compound

How did the spiroplasma growth inhibition turn out when O=Cc1ccc(CO)o1 [Hydroxymethyl-2-furaldehyde, 5-Hydroxymethyl-2-furaldehyde] was run?
The spiroplasma growth inhibition was “No inhibition”.

Same assay, conditions: two days at 28° C.

For O=Cc1ccnc2ccccc12 [Quinolinecarboxaldehyde, 4-Quinolinecarboxaldehyde], which “minimum inhibitory concentration (MIC) compared with reference oxytetracycline” value is on record?
The value was “higher than the reference antibiotics”.

Tested on: spiroplasma
Assay: Antagonistic test of the bacteria's specific compounds (synthetic compounds on spiroplasma in vitro)
Type: cell-based, Spiroplasma melliferum
Settings: 1 milimolar, three days at 29° C.
Method: After potential inhibitory compounds (4-Quinolinecarboxaldehyde and 5-Hydroxymethyl-2-furaldehyde) were identified in the active fraction extracts of the bacteria's supernatant, parallel synthetic compound were purchased (Sigma) and examined on spiroplasma in vitro: 1 ml of spiroplasma medium, 10 μl spiroplasma cells and 10 μl of each compound (final concentration of 1 milimolar) were incubated for three days at 29° C. […] Changes in the indicator color from red to yellow indicated spiroplasma growth.

Which spiroplasma growth inhibition does the source give for O=Cc1ccc(CO)o1 [Hydroxymethyl-2-furaldehyde, 5-Hydroxymethyl-2-furaldehyde] here?
Its spiroplasma growth inhibition is “no inhibition”.

How did the spiroplasma growth inhibition turn out when O=Cc1ccnc2ccccc12 [Quinolinecarboxaldehyde, 4-Quinolinecarboxaldehyde] was run?
Its spiroplasma growth inhibition is “able to inhibit”.

Tested on: DLB
Assay: DLB antibiotic susceptibility test
Type: cell-based, Dyella-like bacterium
Settings: not given

Which Inhibition cycle diameter does the source give for colistinsulfate here?
Its Inhibition cycle diameter is 2-3 mm.

What about the “resistance of the bacterium to the antibiotic” value (from here on “resistance of the bacterium”) of the same compound?
The value was “resistant”.

CC1(C)S[C@@H]2[C@H](NC(=O)[C@H](C(=O)O)c3ccsc3)C(=O)N2[C@H]1C(=O)O [ticarcillin] was tested. Which Inhibition cycle diameter did it give?
Its Inhibition cycle diameter is 10 mm.

How did the Inhibition cycle diameter turn out when NCC[C@H](O)C(=O)N[C@@H]1C[C@H](N)[C@@H](O[C@H]2O[C@H](CN)[C@@H](O)[C@H](O)[C@H]2O)[C@H](O)[C@H]1O[C@H]1O[C@H](CO)[C@@H](O)[C@H](N)[C@H]1O [amikacin] was run?
Its Inhibition cycle diameter is 10 mm.

O=C(O)c1cn(C2CC2)c2cc(N3CCNCC3)c(F)cc2c1=O [ciprofloxacin] was tested. Which Inhibition cycle diameter did it give?
The Inhibition cycle diameter was 2 mm.

And the “resistance of the bacterium” value?
The value was “resistant”.

For CN(C)[C@@H]1C(O)=C(C(N)=O)C(=O)[C@@]2(O)C(O)=C3C(=O)c4c(O)cccc4[C@@](C)(O)[C@H]3C[C@@H]12 [tetracycline], which Inhibition cycle diameter is on record?
Its Inhibition cycle diameter is 10 mm.

Which Inhibition cycle diameter does the source give for neomycin here?
The Inhibition cycle diameter was 10 mm.

With O=C1CN(/N=C/c2ccc([N+](=O)[O-])o2)C(=O)N1 [nitrofuration] as the compound, how does the Inhibition cycle diameter read?
The Inhibition cycle diameter was 2 mm.

And the “resistance of the bacterium” value?
The value was “resistant”.

With COc1cc(Cc2cnc(N)nc2N)cc(OC)c1OC [trimethoprime] as the compound, how does the Inhibition cycle diameter read?
Its Inhibition cycle diameter is 10 mm.

Which Inhibition cycle diameter does the source give for NC[C@H]1O[C@H](O[C@H]2[C@H](O)[C@@H](O[C@H]3O[C@H](CO)[C@@H](O)[C@H](N)[C@H]3O)[C@H](N)C[C@@H]2N)[C@H](N)C[C@@H]1O [tobaramycin] here?
The Inhibition cycle diameter was 10 mm.

With C[C@@H](O)[C@H]1C(=O)N2C(C(=O)O)=C(SCCN=CN)C[C@H]12 [imipenem] as the compound, how does the Inhibition cycle diameter read?
Its Inhibition cycle diameter is 2-3 mm.

NC[C@H]1O[C@H](O[C@H]2[C@H](O)[C@@H](O[C@H]3O[C@H](CO)[C@@H](O)[C@H](N)[C@H]3O)[C@H](N)C[C@@H]2N)[C@H](O)[C@@H](O)[C@@H]1O [kanamycin] was tested. Which Inhibition cycle diameter did it give?
The Inhibition cycle diameter was 10 mm.

For CC1(C)S[C@@H]2[C@H](NC(=O)[C@H](N)c3ccccc3)C(=O)N2[C@H]1C(=O)O [ampicilin A], which Inhibition cycle diameter is on record?
The Inhibition cycle diameter was 10 mm.

How did the Inhibition cycle diameter turn out when CCN1CCN(C(=O)N[C@@H](C(=O)N[C@@H]2C(=O)N3[C@@H]2SC(C)(C)[C@@H]3C(=O)O)c2ccccc2)C(=O)C1=O [piperacillin] was run?
The Inhibition cycle diameter was 10 mm.

Which Inhibition cycle diameter does the source give for CC1(C)S[C@@H]2[C@H](NC(=O)[C@H](N)c3ccc(O)cc3)C(=O)N2[C@H]1C(=O)O [amoxycillin] here?
The Inhibition cycle diameter was 10 mm.

CO/N=C(\C(=O)N[C@@H]1C(=O)N2C(C(=O)O)=C(CSc3nc(=O)c(=O)[nH]n3C)CS[C@H]12)c1csc(N)n1 [ceftriaxone] was tested. Which Inhibition cycle diameter did it give?
The Inhibition cycle diameter was 10 mm.

How did the Inhibition cycle diameter turn out when gentanicin G was run?
Its Inhibition cycle diameter is 10 mm.

For CN[C@H](CC(C)C)C(=O)N[C@H]1C(=O)N[C@@H](CC(N)=O)C(=O)N[C@H]2C(=O)N[C@H]3C(=O)N[C@H](C(=O)N[C@H](C(=O)O)c4cc(O)cc(O)c4-c4cc3ccc4O)[C@H](O)c3ccc(c(Cl)c3)Oc3cc2cc(c3O[C@@H]2O[C@H](CO)[C@@H](O)[C@H](O)[C@H]2O[C@H]2C[C@](C)(N)[C@H](O)[C@H](C)O2)Oc2ccc(cc2Cl)[C@H]1O [vancomycin], which Inhibition cycle diameter is on record?
The Inhibition cycle diameter was 10 mm.

For polymyxin-B, which Inhibition cycle diameter is on record?
The Inhibition cycle diameter was 10 mm.

CC1(C)S[C@@H]2[C@H](NC(=O)C(C(=O)O)c3ccccc3)C(=O)N2[C@H]1C(=O)O (stereo partly shown) [carbencillin] was tested. Which Inhibition cycle diameter did it give?
The Inhibition cycle diameter was 10 mm.

How did the Inhibition cycle diameter turn out when [H]/N=C(/N)N[C@H]1[C@H](O)[C@@H](O)[C@H](O[C@@H]2O[C@@H](C)[C@](O)(C=O)[C@H]2O[C@@H]2O[C@@H](CO)[C@H](O)[C@@H](O)[C@@H]2NC)[C@@H](N/C(N)=N\[H])[C@@H]1O [streptomycin] was run?
The Inhibition cycle diameter was 10 mm.

Which results are given for CCn1cc(C(=O)O)c(=O)c2ccc(C)nc21 [nalidixic acid]?
Inhibition cycle diameter: 1 mm; resistance of the bacterium to the antibiotic: resistant

How did the Inhibition cycle diameter turn out when Cc1cc(NS(=O)(=O)c2ccc(N)cc2)no1 [sulphamethoxazole] was run?
The Inhibition cycle diameter was 10 mm.

How did the Inhibition cycle diameter turn out when CCn1cc(C(=O)O)c(=O)c2cc(F)c(N3CCNCC3)cc21 [norfloxacin] was run?
Its Inhibition cycle diameter is 2 mm.

What about the “resistance of the bacterium” value of the same compound?
Its value is “resistant”.

CO/N=C(\C(=O)N[C@@H]1C(=O)N2C(C(=O)[O-])=C(C[N+]3(C)CCCC3)CS[C@H]12)c1csc(N)n1 [cefeprime] was tested. Which Inhibition cycle diameter did it give?
The Inhibition cycle diameter was 1 mm.

And the “resistance of the bacterium” value?
Its value is “resistant”.

Which Inhibition cycle diameter does the source give for C[C@@H](O)[C@H]1C(=O)N2C(C(=O)O)=C(S[C@@H]3CN[C@H](C(=O)N(C)C)C3)[C@H](C)[C@H]12 [meropenem] here?
The Inhibition cycle diameter was 1 mm.

And the “resistance of the bacterium” value?
Its value is “resistant”.

Which Inhibition cycle diameter does the source give for C[C@H]1[C@H](NC(=O)/C(=N\OC(C)(C)C(=O)O)c2csc(N)n2)C(=O)N1S(=O)(=O)O [aztreonam] here?
The Inhibition cycle diameter was 1 mm.

What about the “resistance of the bacterium” value of the same compound?
Its value is “resistant”.

For CO/N=C(\C(=O)N[C@@H]1C(=O)N2C(C(=O)O)=C(COC(N)=O)CS[C@H]12)c1ccco1 [cefuroxime], which Inhibition cycle diameter is on record?
The Inhibition cycle diameter was 1 mm.

And the “resistance of the bacterium” value?
Its value is “resistant”.

Which Inhibition cycle diameter does the source give for O=C(N[C@H](CO)[C@H](O)c1ccc([N+](=O)[O-])cc1)C(Cl)Cl [chloramphenicol] here?
Its Inhibition cycle diameter is 10 mm.

With CC(=O)OCC1=C(C(=O)O)N2C(=O)[C@@H](NC(=O)Cc3cccs3)[C@H]2SC1 [cephalothin] as the compound, how does the Inhibition cycle diameter read?
The Inhibition cycle diameter was 2 mm.

What about the “resistance of the bacterium” value of the same compound?
The value was “resistant”.
